Experimental data published in patent publication US20040214809A1, “Stabilized silver-ion sulfite complex compositions and methods” (BioInterface Technologies, Inc., priority 2003, published 2004).

Key:
S. aureus (ATCC 29213) = assay: Filter disc zone of inhibition on tryptic soy agar; format: cell-based; conditions: 7 mm filter disc soaked with solution (equivalent of 1% silver nitrate), 37° C. overnight, measured from disc edge, average of two trials
Protocol: (§1) Additionally, a non-stabilized silver thiosulfate complex made according to Example 5. […] Filter paper discs (7 mm diameter) were soaked with either a stabilized silver thiosulfate solution or a non-stabilized silver thiosulfate solution. The antimicrobial studies were performed by first plating S. aureus (ATCC 29213) or E. coli (ATCC 225922) on tryptic soy agar. A disc containing the stabilized thiosulfate solution or the control solution was placed one each of these microbial lawns. […] The culture plates were incubated at 37° C. overnight. The zone of microbial growth inhibition (ZOI) was measured (in millimeters) from the edge of each filter disc and the results from two trials were averaged. The larger the measured ZOI, the greater the antimicrobial effect.

E. coli (ATCC 225922) = assay: Filter disc zone of inhibition on tryptic soy agar; format: cell-based; conditions: 7 mm filter disc soaked with solution (equivalent of 1% silver nitrate), 37° C. overnight, measured from disc edge, average of two trials
Protocol: as §1

silver nitrate [Silver Nitrate Solution]
S. aureus Zone Of Inhibition (S. aureus (ATCC 29213)): 1.5 millimeters
E. coli Zone Of Inhibition (E. coli (ATCC 225922)): 1.0 millimeters
